In ChEMBL document CHEMBL1201862, “PubChem BioAssay data set” (2004):
Active and inactive are the calls of the source.

Experiments:
[1] = Luminescence Cell-Based Dose Retest to Confirm Inhibitors of Cancer Stem Cells. [Related pubchem assays (depositor defined):AID2717, AID2721]; type: functional; conditions: Homo sapiens
[2] = biological target: T1, Latent membrane protein 1 (Human herpesvirus 4 (strain B95-8), UniProt P03230); experiment: LMP1 TES1 pathway selectivity over dsRED control – imaging, HEK293T, dual-color eGFP/dsRED, cherry-picks, selectivity assay for LMP1 NF-kB inhibitor project, dose response (AID 588398); type: functional, cell-based
T1 sequence (P03230 whole entry): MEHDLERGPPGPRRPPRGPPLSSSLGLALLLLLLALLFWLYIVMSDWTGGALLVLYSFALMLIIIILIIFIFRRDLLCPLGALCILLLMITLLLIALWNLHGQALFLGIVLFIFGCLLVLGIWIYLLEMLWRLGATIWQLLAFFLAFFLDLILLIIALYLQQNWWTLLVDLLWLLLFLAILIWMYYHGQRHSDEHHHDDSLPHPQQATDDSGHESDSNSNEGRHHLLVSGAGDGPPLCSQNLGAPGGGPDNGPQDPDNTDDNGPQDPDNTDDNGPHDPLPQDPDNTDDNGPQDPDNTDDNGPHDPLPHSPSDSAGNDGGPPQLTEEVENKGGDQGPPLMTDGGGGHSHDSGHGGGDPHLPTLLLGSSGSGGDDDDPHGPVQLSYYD

Vero [3] = experiment: mammalian cell viability reduction – secondary assay, cytotoxicity control for West Nile virus antiviral project, dose response (AID 1650); type: functional; conditions: Chlorocebus sabaeus
HEK293 = experiment: EBV LMP1 TES2 canonical NF-kB signalling blockers – cell-based, HEK293, luciferase, cherry-pick, dose response (AID 588343); type: functional; conditions: Homo sapiens
Protein Wnt-3a = Protein Wnt-3a (Mus musculus, UniProt P27467); experiment: antagonism of Wnt3a pathway luciferase reporter – Wnt-LIGHT cells, luminescence, selectivity assay for Gli-SUFU antagonist project, dose response (AID 651570); type: functional; conditions: read-out: IC50_Mean;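 further: Wnt-LIGHT reporter cells stimulated with conditioned medium from Wnt3a-producing cells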
Chain of Protein Wnt-3a (P27467 whole entry): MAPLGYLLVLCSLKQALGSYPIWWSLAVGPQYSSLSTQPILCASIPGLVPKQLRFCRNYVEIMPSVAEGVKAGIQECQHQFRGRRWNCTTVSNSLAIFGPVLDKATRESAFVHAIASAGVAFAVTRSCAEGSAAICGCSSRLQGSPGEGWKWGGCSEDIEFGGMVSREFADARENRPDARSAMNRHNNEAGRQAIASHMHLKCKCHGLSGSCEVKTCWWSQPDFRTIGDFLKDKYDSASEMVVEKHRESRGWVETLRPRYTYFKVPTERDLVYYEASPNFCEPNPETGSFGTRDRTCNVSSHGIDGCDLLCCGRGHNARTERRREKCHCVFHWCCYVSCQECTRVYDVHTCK

Vero [4] = experiment: viability of Vero cells under compound – cytotoxicity control for flavivirus capping enzyme inhibitors (AID 588742); type: functional; conditions: Chlorocebus sabaeus
Genome polyprotein = Genome polyprotein (dengue virus type 2, UniProt P29990); experiment: flavivirus cap methylation enzyme inhibition – biochemical, confirmation dose response, primary screen (AID 588689); type: functional
Chain of Genome polyprotein (P29990 2492-3391 limits assumed): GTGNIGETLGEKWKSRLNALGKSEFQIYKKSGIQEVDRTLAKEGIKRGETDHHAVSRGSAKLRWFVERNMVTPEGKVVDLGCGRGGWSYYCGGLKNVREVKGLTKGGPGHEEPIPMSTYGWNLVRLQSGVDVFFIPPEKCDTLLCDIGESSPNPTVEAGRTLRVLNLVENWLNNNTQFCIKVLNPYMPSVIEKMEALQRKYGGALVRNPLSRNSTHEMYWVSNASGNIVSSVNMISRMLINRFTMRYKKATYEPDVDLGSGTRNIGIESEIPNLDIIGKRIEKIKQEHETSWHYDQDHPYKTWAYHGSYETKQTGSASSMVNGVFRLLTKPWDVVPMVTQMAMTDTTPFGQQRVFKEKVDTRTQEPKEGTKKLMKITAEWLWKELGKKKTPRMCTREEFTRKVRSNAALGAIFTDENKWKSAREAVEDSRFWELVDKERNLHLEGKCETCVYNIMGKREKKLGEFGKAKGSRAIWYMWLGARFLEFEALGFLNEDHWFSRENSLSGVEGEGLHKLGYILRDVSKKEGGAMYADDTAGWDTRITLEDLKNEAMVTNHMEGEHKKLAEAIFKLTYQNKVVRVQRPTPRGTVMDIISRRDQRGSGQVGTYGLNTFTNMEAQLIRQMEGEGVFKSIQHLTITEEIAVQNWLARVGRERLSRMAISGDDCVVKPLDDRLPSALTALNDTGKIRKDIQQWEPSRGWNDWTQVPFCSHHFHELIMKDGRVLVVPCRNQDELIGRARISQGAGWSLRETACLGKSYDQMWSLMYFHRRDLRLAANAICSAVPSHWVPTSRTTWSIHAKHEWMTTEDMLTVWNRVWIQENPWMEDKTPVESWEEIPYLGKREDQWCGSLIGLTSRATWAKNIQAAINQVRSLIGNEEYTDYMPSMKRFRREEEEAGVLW

[5] = biological target: T2, Sentrin-specific protease 7 (Homo sapiens, UniProt Q9BQF6); type: functional;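 further: Luminescence-based dose-response confirmation of ultra-high-throughput screening hits, measuring inhibition of SENP7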
T2 sequence (Q9BQF6 whole entry): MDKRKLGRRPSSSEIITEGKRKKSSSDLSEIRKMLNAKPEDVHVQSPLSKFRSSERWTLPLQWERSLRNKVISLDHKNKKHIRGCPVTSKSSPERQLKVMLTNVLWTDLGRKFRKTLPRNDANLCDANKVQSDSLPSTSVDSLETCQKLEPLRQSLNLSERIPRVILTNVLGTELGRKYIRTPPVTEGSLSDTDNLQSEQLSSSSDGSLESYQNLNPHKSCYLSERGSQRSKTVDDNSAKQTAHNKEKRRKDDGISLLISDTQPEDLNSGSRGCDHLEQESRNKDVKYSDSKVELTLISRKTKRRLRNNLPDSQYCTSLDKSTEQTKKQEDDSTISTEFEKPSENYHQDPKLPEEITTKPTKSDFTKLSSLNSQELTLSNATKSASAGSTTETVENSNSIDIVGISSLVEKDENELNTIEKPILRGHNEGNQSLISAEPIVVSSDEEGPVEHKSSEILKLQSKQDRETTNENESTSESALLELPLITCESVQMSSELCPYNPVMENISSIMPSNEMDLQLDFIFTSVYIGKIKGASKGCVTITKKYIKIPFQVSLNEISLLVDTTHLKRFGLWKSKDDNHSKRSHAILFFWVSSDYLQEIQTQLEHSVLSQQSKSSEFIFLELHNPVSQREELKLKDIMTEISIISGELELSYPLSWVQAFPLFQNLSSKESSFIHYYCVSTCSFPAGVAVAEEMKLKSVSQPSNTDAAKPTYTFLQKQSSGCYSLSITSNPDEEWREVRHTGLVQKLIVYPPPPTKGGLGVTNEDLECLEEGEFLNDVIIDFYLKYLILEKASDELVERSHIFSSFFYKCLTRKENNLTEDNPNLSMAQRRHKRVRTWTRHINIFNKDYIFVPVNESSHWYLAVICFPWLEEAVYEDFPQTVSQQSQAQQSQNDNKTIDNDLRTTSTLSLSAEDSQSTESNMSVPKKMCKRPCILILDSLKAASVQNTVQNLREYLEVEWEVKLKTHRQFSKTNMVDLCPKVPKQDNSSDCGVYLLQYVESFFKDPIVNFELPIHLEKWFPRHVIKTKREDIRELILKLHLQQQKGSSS

[6] = biological target: T3, Sentrin-specific protease 8 (Homo sapiens, UniProt Q96LD8); type: functional;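 further: luminescence read-out of SENP8 inhibition, dose-response confirmation following an ultra-high-throughput screen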
T3 sequence (Q96LD8 whole entry): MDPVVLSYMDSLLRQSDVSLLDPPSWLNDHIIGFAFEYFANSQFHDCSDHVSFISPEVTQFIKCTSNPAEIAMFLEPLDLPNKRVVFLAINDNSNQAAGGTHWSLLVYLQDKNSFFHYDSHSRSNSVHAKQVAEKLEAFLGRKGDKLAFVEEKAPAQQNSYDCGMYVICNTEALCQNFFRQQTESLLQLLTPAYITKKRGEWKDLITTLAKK

[7] = biological target: T4, Sentrin-specific protease 6 (Homo sapiens, UniProt Q9GZR1); type: functional;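 further: Luminescence-based dose-response confirmatory assay of SENP6 inhibition, following up an ultra-high-throughput screen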
T4 sequence (Q9GZR1 whole entry): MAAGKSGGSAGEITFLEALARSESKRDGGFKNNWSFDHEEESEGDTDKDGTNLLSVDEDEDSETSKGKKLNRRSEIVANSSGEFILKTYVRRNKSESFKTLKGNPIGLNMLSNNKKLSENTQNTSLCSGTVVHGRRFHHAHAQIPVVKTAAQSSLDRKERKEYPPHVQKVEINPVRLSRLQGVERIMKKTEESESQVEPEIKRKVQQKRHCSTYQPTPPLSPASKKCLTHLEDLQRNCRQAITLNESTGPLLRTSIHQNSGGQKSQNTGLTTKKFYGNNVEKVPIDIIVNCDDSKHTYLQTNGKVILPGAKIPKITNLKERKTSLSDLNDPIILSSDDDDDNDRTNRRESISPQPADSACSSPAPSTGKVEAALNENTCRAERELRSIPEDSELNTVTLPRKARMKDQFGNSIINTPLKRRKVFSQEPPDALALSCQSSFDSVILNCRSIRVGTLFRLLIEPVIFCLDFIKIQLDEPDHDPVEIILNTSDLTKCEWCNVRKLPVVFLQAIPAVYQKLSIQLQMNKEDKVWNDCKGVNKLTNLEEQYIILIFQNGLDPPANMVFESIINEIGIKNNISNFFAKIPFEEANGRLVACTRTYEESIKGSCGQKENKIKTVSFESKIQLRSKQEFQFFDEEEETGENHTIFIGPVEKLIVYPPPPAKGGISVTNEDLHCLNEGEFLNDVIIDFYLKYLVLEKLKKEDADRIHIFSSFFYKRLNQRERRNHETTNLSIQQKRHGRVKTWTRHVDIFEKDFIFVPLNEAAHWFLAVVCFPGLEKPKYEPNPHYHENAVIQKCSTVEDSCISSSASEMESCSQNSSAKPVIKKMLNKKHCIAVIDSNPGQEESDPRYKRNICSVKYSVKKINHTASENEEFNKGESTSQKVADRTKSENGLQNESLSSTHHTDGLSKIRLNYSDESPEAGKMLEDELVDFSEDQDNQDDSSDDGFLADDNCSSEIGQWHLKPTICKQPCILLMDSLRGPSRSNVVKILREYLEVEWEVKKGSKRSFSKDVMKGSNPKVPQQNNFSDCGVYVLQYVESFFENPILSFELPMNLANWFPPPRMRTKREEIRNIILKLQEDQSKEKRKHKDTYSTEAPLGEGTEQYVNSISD

Caspase-3 = biological target: T5, Caspase-3 (Homo sapiens, UniProt P42574); type: functional;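 further: Dose-response selectivity test against caspase-3 for candidate inhibitors of sentrin-specific proteases (SENPs)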
T5 sequence (P42574 whole entry): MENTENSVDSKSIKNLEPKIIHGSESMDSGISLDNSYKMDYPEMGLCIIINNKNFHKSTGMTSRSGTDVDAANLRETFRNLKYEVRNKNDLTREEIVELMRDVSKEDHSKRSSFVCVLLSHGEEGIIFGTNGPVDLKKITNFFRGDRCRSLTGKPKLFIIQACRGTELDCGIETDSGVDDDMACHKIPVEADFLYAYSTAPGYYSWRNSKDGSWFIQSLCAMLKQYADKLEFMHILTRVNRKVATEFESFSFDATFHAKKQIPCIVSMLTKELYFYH

INS1 = experiment: INS-1E survival protection against cytokine death – cell-based, luminescence, retest, dose response (AID 449756); type: functional; conditions: Rattus norvegicus;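 further: cell death triggered by IL-1 beta plus TNF-alpha plus IFN-gamma mixture; protective hits raise ATP signal compared with cytokine alone wells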
[8] = Trypanosoma cruzi growth suppression in host cells – NIH3T3 host cells, beta-gal luminescence, confirmation (AID 2044); type: functional, cell-based;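 further: intracellular parasites grown in NIH/3T3 mouse fibroblasts as host cells; luminescent beta-galactosidase reporter signal from transgenic T. cruzi replicating inside host cells; inhibitors lower the luminescence signal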
[9] = NIH3T3 cell viability loss – ATP luminescence, mouse fibroblasts, counter-screen, dose response (AID 2010); type: functional, cell-based;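 further: cells exposed to compound for about 90 hours before reading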

O=C(Nc1cc(C(F)(F)F)cc(C(F)(F)F)c1)Nc1cnn(-c2ccc([N+](=O)[O-])cc2)c1C(F)(F)F
AC50 [1]: 0.442 µM (active)
AC50 [2]: 3.91 µM (active)
CC50 (Vero [3]): 2.94 µM (active)
AC50 (HEK293): 1.12 µM (active)

Nc1ccc(Br)cc1-c1nc2ccccc2[nH]c1=O
IC50 (Protein Wnt-3a): 0.449 µM (active)

O=C(c1ccccc1)c1ccc(O)c(O)c1O
CC50 (Vero [4]): > 40 µM (active)
IC50 (Genome polyprotein): 57.7 µM (active)

Cc1ccc(-c2cnn(-c3cccc([N+](=O)[O-])c3)c2N)cc1
IC50 [5]: 8.04 µM (active)
IC50 [6]: > 100 µM (inactive)
IC50 [7]: > 100 µM (inactive)
IC50 (Caspase-3): 23.7 µM (active)

Cc1ccc2c(c1)S/C(=C/c1ccc[n+](C)c1)N2CCO
IC50 (Protein Wnt-3a): 26.7 µM (inactive)
AC50 (INS1): 3.77 µM (active)
EC50 [8]: 1.16 µM (active)
EC50 [9]: > 60 µM (not active)
